Measurements: US20250215030A1, “STAT MODULATORS AND USES THEREOF” (Recludix Pharma, Inc., priority 2022, published 2025)

How the values were obtained:
[1] = target: T1, Recombinant STAT6 protein (STAT6(W123-T658)) (Homo sapiens, UniProt P42226); test: STAT6 Fluorescence Polarization (FP) Assay; assay type: binding; details: STAT6(W123-T658) 250 nM, probe 5-FAM-ApYKPFQDLI-NH2 2 nM, 45-minute incubation
T1 construct: STAT6(W123-T658)
T1 sequence (P42226 123-658): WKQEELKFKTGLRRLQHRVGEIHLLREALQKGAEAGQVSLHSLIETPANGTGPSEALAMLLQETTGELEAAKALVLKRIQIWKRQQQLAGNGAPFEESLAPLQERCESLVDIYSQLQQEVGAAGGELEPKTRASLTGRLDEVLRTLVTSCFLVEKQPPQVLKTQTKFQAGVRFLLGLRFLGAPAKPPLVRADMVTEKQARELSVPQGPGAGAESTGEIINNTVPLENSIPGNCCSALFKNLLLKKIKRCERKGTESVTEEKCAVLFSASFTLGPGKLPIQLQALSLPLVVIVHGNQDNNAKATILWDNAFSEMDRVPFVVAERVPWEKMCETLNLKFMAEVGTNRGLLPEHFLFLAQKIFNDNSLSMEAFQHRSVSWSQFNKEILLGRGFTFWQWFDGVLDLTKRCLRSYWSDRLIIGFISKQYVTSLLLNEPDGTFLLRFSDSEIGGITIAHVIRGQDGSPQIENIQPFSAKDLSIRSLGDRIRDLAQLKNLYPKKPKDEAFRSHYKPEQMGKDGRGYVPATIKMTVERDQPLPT
How it was run: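 STAT6 (W123-T658) at 250 nM mixed with 2 nM 5-FAM-ApYKPFQDLI-NH2 probe in HEPES pH 7.4 buffer with DTT and Tween 20, 1% DMSO final. Polarization read after 45 min at room temperature; IC50 by nonlinear regression of mP versus log concentration, reported in bins A–D.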

[2] = target: T2, Recombinant STAT3 protein (STAT3(G127-I722)) (Homo sapiens, UniProt P40763); test: STAT3 Fluorescence Polarization (FP) Assay; assay type: binding; details: STAT3(G127-I722) 25 nM, probe 5-FAM-GpYLPQTV-NH2 2 nM, 45-minute incubation
T2 construct: STAT3(G127-I722)
How it was run: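 STAT3(G127-I722) at 25 nM and 5-FAM-GpYLPQTV-NH2 probe at 2 nM in HEPES pH 7.4 buffer with NaCl, EDTA, Tween 20, DTT; 1% DMSO. FP read after 45 min at room temperature; IC50 by nonlinear regression of mP vs log concentration, binned A ≤100 nM to D >10 μM.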

T2 sequence (P40763 127-722, species assumed): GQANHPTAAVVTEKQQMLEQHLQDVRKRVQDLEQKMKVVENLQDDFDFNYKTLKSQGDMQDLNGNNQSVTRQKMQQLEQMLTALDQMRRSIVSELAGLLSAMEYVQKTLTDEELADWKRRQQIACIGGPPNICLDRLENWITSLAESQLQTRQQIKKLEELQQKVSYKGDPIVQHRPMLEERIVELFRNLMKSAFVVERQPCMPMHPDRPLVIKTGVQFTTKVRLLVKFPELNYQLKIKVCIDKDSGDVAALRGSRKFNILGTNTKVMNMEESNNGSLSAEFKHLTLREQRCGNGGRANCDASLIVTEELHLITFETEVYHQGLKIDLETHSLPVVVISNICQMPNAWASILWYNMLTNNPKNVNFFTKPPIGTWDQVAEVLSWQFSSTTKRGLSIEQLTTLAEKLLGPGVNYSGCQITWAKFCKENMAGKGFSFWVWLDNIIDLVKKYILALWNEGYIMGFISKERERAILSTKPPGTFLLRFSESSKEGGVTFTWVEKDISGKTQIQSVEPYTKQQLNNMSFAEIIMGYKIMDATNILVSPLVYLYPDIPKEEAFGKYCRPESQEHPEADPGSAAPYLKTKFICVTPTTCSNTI

| IC50 [1] | IC50 [2] | SMILES |
| --- | --- | --- |
| 3 to 30 µM | < 0.1 µM | O=C(N[C@H]1C[C@@H]2C[C@@H]2C[C@H]2CC[C@@H](C(=O)N3CC(c4ccon4)C3)N2C1=O)c1cc2cc(C(F)P(=O)(O)O)ccc2s1 (stereo partly drawn) [Example 312, (fluoro(2-(((3S,6S,7aS,8aR,9aR)-3-(3-(isoxazol-3-yl)azetidine-1-carbonyl)-5-oxodecahydro-1H-cyclopropa[d]pyrrolo[1,2-a]azocin-6-yl)carbamoyl)benzo[b]thiophen-5-yl)methyl)phosphonic acid] |
| 0.3 to 3 µM | < 0.1 µM | O=C(N[C@H]1C[C@H]2C[C@H]2C[C@H]2CC[C@@H](C(=O)N3CC[C@H](c4cnccc4F)C3)N2C1=O)c1cc2cc(C(F)P(=O)(O)O)ccc2s1 (stereo partly drawn) [Example 313, (fluoro(2-(((3S,6S,7aR,8aS,9aR)-3-((R)-3-(4-fluoropyridin-3-yl)pyrrolidine-1-carbonyl)-5-oxodecahydro-1H-cyclopropa[d]pyrrolo[1,2-a]azocin-6-yl)carbamoyl)benzo[b]thiophen-5-yl)methyl)phosphonic acid] |
| 3 to 30 µM | < 0.1 µM | O=C(N[C@H]1C[C@H]2C[C@H]2C[C@H]2CC[C@@H](C(=O)N3CC(c4ncccn4)C3)N2C1=O)c1cc2cc(C(F)P(=O)(O)O)ccc2s1 (stereo partly drawn) [Example 317, (fluoro(2-(((3S,6S,7aR,8aS,9aR)-5-oxo-3-(3-(pyrimidin-2-yl)azetidine-1-carbonyl)decahydro-1H-cyclopropa[d]pyrrolo[1,2-a]azocin-6-yl)carbamoyl)benzo[b]thiophen-5-yl)methyl)phosphonic acid] |
| 3 to 30 µM | < 0.1 µM | COc1ccncc1C1CN(C(=O)[C@@H]2CC[C@@H]3C[C@@H]4C[C@@H]4C[C@H](NC(=O)c4cc5cc(C(F)P(=O)(O)O)ccc5s4)C(=O)N32)C1 (stereo partly drawn) [Example 318, (fluoro(2-(((3S,6S,7aR,8aS,9aR)-3-(3-(4-methoxypyridin-3-yl)azetidine-1-carbonyl)-5-oxodecahydro-1H-cyclopropa[d]pyrrolo[1,2-a]azocin-6-yl)carbamoyl)benzo[b]thiophen-5-yl)methyl)phosphonic acid] |
| 3 to 30 µM | < 0.1 µM | Cc1ccncc1C1CN(C(=O)[C@@H]2CC[C@@H]3C[C@@H]4C[C@@H]4C[C@H](NC(=O)c4cc5cc(C(F)P(=O)(O)O)ccc5s4)C(=O)N32)C1 (stereo partly drawn) [Example 320, (fluoro(2-(((3S,6S,7aR,8aS,9aR)-3-(3-(4-methylpyridin-3-yl)azetidine-1-carbonyl)-5-oxodecahydro-1H-cyclopropa[d]pyrrolo[1,2-a]azocin-6-yl)carbamoyl)benzo[b]thiophen-5-yl)methyl)phosphonic acid] |
| 3 to 30 µM | < 0.1 µM | O=C(N[C@H]1C[C@@H]2C[C@@H]2C[C@H]2CC[C@@H](C(=O)N3CC(c4ncco4)C3)N2C1=O)c1cc2cc(C(F)P(=O)(O)O)ccc2s1 (stereo partly drawn) [Example 322, (fluoro(2-(((3S,6S,7aS,8aR,9aR)-3-(3-(oxazol-2-yl)azetidine-1-carbonyl)-5-oxodecahydro-1H-cyclopropa[d]pyrrolo[1,2-a]azocin-6-yl)carbamoyl)benzo[b]thiophen-5-yl)methyl)phosphonic acid] |
| 3 to 30 µM | 0.1 to 1 µM | Cc1cnc(C2CN(C(=O)[C@@H]3CC[C@@H]4C[C@H]5C[C@H]5C[C@H](NC(=O)c5cc6cc(C(F)P(=O)(O)O)ccc6s5)C(=O)N43)C2)o1 (stereo partly drawn) [Example 324, (fluoro(2-(((3S,6S,7aS,8aR,9aR)-3-(3-(5-methyloxazol-2-yl)azetidine-1-carbonyl)-5-oxodecahydro-1H-cyclopropa[d]pyrrolo[1,2-a]azocin-6-yl)carbamoyl)benzo[b]thiophen-5-yl)methyl)phosphonic acid] |
| 3 to 30 µM | 0.1 to 1 µM | Cc1noc(C2CN(C(=O)[C@@H]3CC[C@@H]4C[C@H]5C[C@H]5C[C@H](NC(=O)c5cc6cc(C(F)P(=O)(O)O)ccc6s5)C(=O)N43)C2)n1 (stereo partly drawn) [Example 326, (fluoro(2-(((3S,6S,7aS,8aR,9aR)-3-(3-(3-methyl-1,2,4-oxadiazol-5-yl)azetidine-1-carbonyl)-5-oxodecahydro-1H-cyclopropa[d]pyrrolo[1,2-a]azocin-6-yl)carbamoyl)benzo[b]thiophen-5-yl)methyl)phosphonic acid] |
| 3 to 30 µM | 0.1 to 1 µM | Cc1nnc(C2CN(C(=O)[C@@H]3CC[C@@H]4C[C@H]5C[C@H]5C[C@H](NC(=O)c5cc6cc(C(F)P(=O)(O)O)ccc6s5)C(=O)N43)C2)o1 (stereo partly drawn) [Example 327, (fluoro(2-(((3S,6S,7aS,8aR,9aR)-3-(3-(5-methyl-1,3,4-oxadiazol-2-yl)azetidine-1-carbonyl)-5-oxodecahydro-1H-cyclopropa[d]pyrrolo[1,2-a]azocin-6-yl)carbamoyl)benzo[b]thiophen-5-yl)methyl)phosphonic acid] |
| 3 to 30 µM | 0.1 to 1 µM | Cc1cc(C2CN(C(=O)[C@@H]3CC[C@@H]4C[C@H]5C[C@H]5C[C@H](NC(=O)c5cc6cc(C(F)P(=O)(O)O)ccc6s5)C(=O)N43)C2)on1 (stereo partly drawn) [Example 328, (fluoro(2-(((3S,6S,7aS,8aR,9aR)-3-(3-(3-methylisoxazol-5-yl)azetidine-1-carbonyl)-5-oxodecahydro-1H-cyclopropa[d]pyrrolo[1,2-a]azocin-6-yl)carbamoyl)benzo[b]thiophen-5-yl)methyl)phosphonic acid] |
| 0.3 to 3 µM | < 0.1 µM | NC(=O)N1C[C@H](NC(=O)[C@@H]2CC[C@@H]3C[C@H]4C[C@H]4C[C@H](NC(=O)c4cc5cc(C(F)P(=O)(O)O)ccc5s4)C(=O)N32)[C@@H](F)C1 (stereo partly drawn) [Example 330, ((2-(((3S,6S,7aS,8aR,9aR)-3-(((3S,4S)-1-carbamoyl-4-fluoropyrrolidin-3-yl)carbamoyl)-5-oxodecahydro-1H-cyclopropa[d]pyrrolo[1,2-a]azocin-6-yl)carbamoyl)benzo[b]thiophen-5-yl)fluoromethyl)phosphonic acid] |
| 3 to 30 µM | < 0.1 µM | Cn1cnnc1C1CN(C(=O)[C@@H]2CC[C@@H]3C[C@@H]4C[C@@H]4C[C@H](NC(=O)c4cc5cc(C(F)P(=O)(O)O)ccc5s4)C(=O)N32)C1 (stereo partly drawn) [Example 331, (fluoro(2-(((3S,6S,7aR,8aS,9aR)-3-(3-(4-methyl-4H-1,2,4-triazol-3-yl)azetidine-1-carbonyl)-5-oxodecahydro-1H-cyclopropa[d]pyrrolo[1,2-a]azocin-6-yl)carbamoyl)benzo[b]thiophen-5-yl)methyl)phosphonic acid] |
| 3 to 30 µM | < 0.1 µM | CS(=O)(=O)CC1CN(C(=O)[C@@H]2CC[C@@H]3C[C@H]4C[C@H]4C[C@H](NC(=O)c4cc5cc(C(F)P(=O)(O)O)ccc5s4)C(=O)N32)C1 (stereo partly drawn) [Example 333, (fluoro(2-(((3S,6S,7aS,8aR,9aR)-3-(3-((methylsulfonyl)methyl)azetidine-1-carbonyl)-5-oxodecahydro-1H-cyclopropa[d]pyrrolo[1,2-a]azocin-6-yl)carbamoyl)benzo[b]thiophen-5-yl)methyl)phosphonic acid] |
| > 30 µM | 1 to 10 µM | O=C(N[C@H]1C[C@@H]2C[C@@H]2C[C@H]2CC[C@@H](C(=O)N3CC(Oc4cnccn4)C3)N2C1=O)c1cc2cc(CP(=O)(O)O)ccc2s1 [Example 334, ((2-(((3S,6S,7aS,8aR,9aR)-5-oxo-3-(3-(pyrazin-2-yloxy)azetidine-1-carbonyl)decahydro-1H-cyclopropa[d]pyrrolo[1,2-a]azocin-6-yl)carbamoyl)benzo[b]thiophen-5-yl)methyl)phosphonic acid] |
| > 30 µM | 1 to 10 µM | Cn1cc(OC2CN(C(=O)[C@@H]3CC[C@@H]4C[C@H]5C[C@H]5C[C@H](NC(=O)c5cc6cc(CP(=O)(O)O)ccc6s5)C(=O)N43)C2)cn1 [Example 335, ((2-(((3S,6S,7aS,8aR,9aR)-3-(3-((1-methyl-1H-pyrazol-4-yl)oxy)azetidine-1-carbonyl)-5-oxodecahydro-1H-cyclopropa[d]pyrrolo[1,2-a]azocin-6-yl)carbamoyl)benzo[b]thiophen-5-yl)methyl)phosphonic acid] |
| 3 to 30 µM | 0.1 to 1 µM | COc1cc(C2CN(C(=O)[C@@H]3CC[C@@H]4C[C@H]5C[C@H]5C[C@H](NC(=O)c5cc6cc(C(F)P(=O)(O)O)ccc6s5)C(=O)N43)C2)on1 (stereo partly drawn) [Example 336, (fluoro(2-(((3S,6S,7aS,8aR,9aR)-3-(3-(3-methoxyisoxazol-5-yl)azetidine-1-carbonyl)-5-oxodecahydro-1H-cyclopropa[d]pyrrolo[1,2-a]azocin-6-yl)carbamoyl)benzo[b]thiophen-5-yl)methyl)phosphonic acid] |
